Publication PMC6364495, “Peptide–siRNA Supramolecular Particles for Neural Cell Transfection” (Advanced Science, 2018)
No end group written: not given here.

Key:
[1] = tested on: primary cortical embryonic neurons; experiment: Internalization route with endocytosis inhibitors, neurons; format: cell-based, mouse; details: 300 μM amiloride, 30 minutes preincubation before P4 + siRNA-A488, flow cytometry
Method: 1-4 days post-transfection cells were washed carefully three times with 1x PBS. Each well was incubated with 200 µL […]
resuspended in 600 µL of media to neutralize the trypsin and were centrifuged for 15 min at […]. Supernatant was removed, and the pellet was re-suspended in approximately 40 μL of media before Flow Cytometry (BD LSRFortessa) was performed. DAPI (Sigma, 5 µg/mL) was added 1-3 min before measurements were taken to determine the absolute number of dead cells (excitation wavelength of 405 nm). Cell populations were gated based on cell size (FSC), granularity of the cytoplasm (SSC), multiple cells (FSC-W), UV fluorescence (DAPI filter). Percentage of positive cells was calculated from alive cells (DAPI negative). All the samples were measured in triplicates. Results were analyzed using FlowJo software.
After 15 div neural cells were treated with either 5 μg/mL chlorpromazine hydrochloride, 1μg/mL fillipin III from Streptomyces filipinensis, 300 μM amiloride hydrochloride or a combination of them in fresh serum-free medium for 30 minutes before incubated with the peptide (52 μM) + siRNA-A488 (100 nM) for 15h. Samples were analyzed using flow cytometry as described in the previous section.
Western blot/ immunocytochemistry […]

Proteinase K = target: T1, Proteinase K (Parengyodontium album, UniProt P06873); experiment: Proteinase K digestion test; format: in vitro ADME, Tritirachium album; details: 50 µM peptide, 0.2 µM siRNA, 25 mM HEPES pH 7.4, 24h, 37C, gel
T1 construct: purchased Sigma-Aldrich
Method: (§1) (Inhepar®, 5000 U/mL equivalent to) and Milli -Q® water to a final concentration of 0.01 mg/mL (1 U/mL) in a final volume of 10 μL. Samples were incubated at room temperature for 2h. After incubation, samples were run in a native 6% polyacrylamide electrophoresis gel as described in the section above.
(§2) A solution of 40 µM peptide and 0.2 µM DNA dissolved in 10X DNAse I buffer (Invitrogen) was mixed with DNAse I (Invitrogen) for a final enzyme concentration of 0.003 U/µL. The solution was incubated at 37 C and at each time point, 12 µL were mixed with 2.7 µL of 5X TBE buffer in ice to quench the enzyme. Then an aliquot of 4 M NaCl was added to every time point sample to a final concentration of […] after incubation for 3 days at 4°C the samples were ran in an electrophoresis gel.
(§3) Proteinase K Digestion Test
(§4) A previously prepared solution of 50 µM peptide and 0.2 µM siRNA dissolved in buffer 25 mM HEPES pH 7.4 were incubated during 24h at 37C in presence of Proteinase K from Tritirachium album (Sigma-Aldrich). After this time an aliquot of it was ran in an electrophoresis gel as mentioned above.
(§5) Salt stability of P4-siRNA particles
(§6) Sample solutions of 70 µM P4 peptide and 0.2 µM of siRNA in 25 mM HEPES pH 7.4 were incubated with different concentrations of NaCl (0-300 mM) for 24h at room temperature.
(§7) The samples were run in a native 6% polyacrylamide electrophoresis gel prepared manually. […]

[2] = tested on: primary cortical embryonic neurons; format: cell-based; details: 24 h, 104 µM
Method: (§8) Dulbecco’s Modified Eagle Medium (DMEM, Biological Industries), 10% normal horse serum (NHS, GIBCO), 1% penicillin-streptomycin (Pen-Strep, Biological Industries) and 2mM L-glutamine (Biological Industries). After centrifugation and re-suspension, cells were plated and grown to confluence at 37°C, 5% CO 2 (approximately 25-30 days in vitro (div)).
(§9) All the experiments were performed using glial cells from the first passage (Ps1). Passage 1 (Ps1) cells were cultured at a density of 2x10^5 cells/cm2 for 15 days in vitro (div) in DMEM, 1% Pen-Strep and 2mM L-glutamine on non-coated culture plastic (for Western blotting, flow cytometry) or glass (for immunocytochemistry). The cell composition and biochemical characterization of control and reference glial conditions have been described previously2.
(§10) Neurons were obtained from embryonic brains, as described3. Briefly, a time pregnant mouse was sacrificed by cervical dislocation and the embryos were extracted at embryonic day 16 (E16). […]
(§11) resuspended in 600 µL of media to neutralize the trypsin and were centrifuged for 15 min at 1.2 rpm. […] Cell populations were gated based on cell size (FSC), granularity of the cytoplasm (SSC), multiple cells (FSC-W), UV fluorescence (DAPI filter). Percentage of positive cells was calculated from alive cells (DAPI negative). All the samples were measured in triplicates. Results were analyzed using FlowJo software. […]

[3] = tested on: primary cortical astroglial cells; format: cell-based; details: 24 h, 104 µM
Method: as §8, §9, §10, §11

DNAse I = target: T2, DNAse I (Bos taurus, UniProt P00639); experiment: Salt stability and DNAse I digestion of P4-DNA particles; format: in vitro ADME; details: versus siRNA particles, DNAse I 0.003 U/µL, 37 C, gel
T2 construct: purchased Invitrogen
Method: as §1, §2, §3, §4, §5, §6, §7

[4] = Water solubility of peptide; format: physicochemical

T1 sequence (P06873 106-384): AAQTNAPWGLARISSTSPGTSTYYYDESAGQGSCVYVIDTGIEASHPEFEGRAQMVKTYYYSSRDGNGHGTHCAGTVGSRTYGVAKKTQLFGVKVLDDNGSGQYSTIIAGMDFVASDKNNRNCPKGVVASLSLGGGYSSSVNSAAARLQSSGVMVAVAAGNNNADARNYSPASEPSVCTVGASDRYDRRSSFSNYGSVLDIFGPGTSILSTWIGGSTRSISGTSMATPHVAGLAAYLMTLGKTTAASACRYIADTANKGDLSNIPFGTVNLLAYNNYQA
T2 sequence (P00639 23-282): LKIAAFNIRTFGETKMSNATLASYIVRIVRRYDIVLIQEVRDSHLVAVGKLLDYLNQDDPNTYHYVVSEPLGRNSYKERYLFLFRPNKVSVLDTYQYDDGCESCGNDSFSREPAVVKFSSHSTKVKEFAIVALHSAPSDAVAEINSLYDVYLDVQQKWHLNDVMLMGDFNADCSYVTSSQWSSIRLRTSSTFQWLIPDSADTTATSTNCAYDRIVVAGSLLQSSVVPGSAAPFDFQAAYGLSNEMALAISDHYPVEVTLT

N=C(N)NC(=O)c1nc(Cl)c(N)nc1N [Amiloride, amiloride]
reduction of uptake of siRNA, neuronal [1]: 80% ± 9.1

SIRKLEYEIEELRLRIGGGTFVETGSGTSKQVAKRVAAEKLLTKFKT [P4]
release of siRNA after proteinase K digestion (Proteinase K): can be released after protease digestion
cell survival, neuronal cells [2]: 89% ± 7
cell survival, astroglial cells [3]: 88% ± 5.5
salt and enzymatic stability of P4 complexed with dsDNA (DNAse I): lower salt and enzymatic stability

MPVGSLQELAVQKGWRLPEYTVAQESGPPHKREFTITVRVE [P1]
water solubility [4]: poor water solubility
